The target in the assay is T1, full-length recombinant human Btk protein (Homo sapiens, UniProt Q06187).
T1 construct: The full-length recombinant human Btk protein; purchased Invitrogen (Carlsbad, Calif.) Lot #619547Q (catalogue number not given)
T1 sequence (Q06187 whole entry): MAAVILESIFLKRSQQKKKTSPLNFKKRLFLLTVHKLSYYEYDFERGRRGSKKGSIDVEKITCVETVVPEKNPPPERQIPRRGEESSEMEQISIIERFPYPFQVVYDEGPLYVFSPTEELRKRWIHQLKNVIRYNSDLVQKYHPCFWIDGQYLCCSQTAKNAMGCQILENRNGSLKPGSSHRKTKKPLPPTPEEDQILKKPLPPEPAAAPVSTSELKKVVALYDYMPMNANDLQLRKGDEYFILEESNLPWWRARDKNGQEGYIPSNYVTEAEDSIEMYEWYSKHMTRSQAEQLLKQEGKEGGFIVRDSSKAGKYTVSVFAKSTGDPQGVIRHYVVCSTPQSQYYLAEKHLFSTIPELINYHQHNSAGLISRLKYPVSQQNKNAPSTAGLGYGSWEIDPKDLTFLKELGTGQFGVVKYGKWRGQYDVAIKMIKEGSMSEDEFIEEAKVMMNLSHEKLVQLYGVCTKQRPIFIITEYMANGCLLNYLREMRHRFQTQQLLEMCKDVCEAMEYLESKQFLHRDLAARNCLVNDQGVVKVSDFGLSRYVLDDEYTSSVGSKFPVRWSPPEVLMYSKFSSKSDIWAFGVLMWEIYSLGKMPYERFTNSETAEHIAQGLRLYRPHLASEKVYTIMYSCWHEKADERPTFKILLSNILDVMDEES
As to the kind of experiment: Covalent bonding assay, intact protein MALDI mass spectrometry. In kind it is binding. The settings on record: 60 minutes incubation, 10-fold excess of compound to protein, room temperature. As to the method:
The following example describes testing certain compounds to determine whether they covalently bind to BTK. The full-length recombinant human Btk protein (Lot #619547Q; 0.35 mg/mL) was obtained from Invitrogen (Carlsbad, Calif.). Btk protein was diluted 2:3 in phosphate-buffered saline and stock concentration (10 mM) of compound was diluted 1:115 in 50% DMSO.
For all compounds, 1 μL of diluted compound was added to 5 μL of diluted protein. These mixtures were then incubated for 60 minutes at a 10-fold excess of compound to protein under room temperature (˜24° C.) conditions.
At the end of the incubation, 5 μL aliquots of the samples were diluted with 15 μL of 0.2% TFA prior to micro C4 ZipTipping® directly onto the MALDI target plate using sinapinic acid as the desorption matrix (10 mg/mL in 0.2% TFA:Acetonitrile 50:50). Samples were immediately analyzed on an ABSciex 4800 MALDI TOF-TOF mass spectrometer.
For intact protein mass measurement, the mass spectrometer was set in linear mode using a pulsed extraction setting of 81,500. Bovine serum albumin (BSA; Sigma, St Louis, Mo.) was used as the standard to calibrate the instrument. These values correspond to the percentage of total protein covalently modified by the tested compound after one hour incubation.
For the molecule `COCCOc1ccc(Nc2ncc(F)c(Nc3cccc(NC(=O)C4CO4)c3)n2)cc1` (stereo not drawn) [Compound I-19, N-(3-((5-fluoro-2-((4-(2-methoxyethoxyl)phenyl)amino)pyrimidin-4-yl)amino)phenyl)oxirane-2-carboxamide], the MS % modification result was “A (>70% modification)”.
On to `O=C(Nc1cccc(Nc2nc(Nc3ccc(OCCO)cc3)ncc2F)c1)C(O)CO` (stereo not drawn) [Compound I-5, N-(3-((5-fluoro-2-((4-(2-hydroxyethoxyl)phenyl)amino)pyrimidin-4-yl)amino)phenyl)-2,3-dihydroxypropanamide], for which the MS % modification result was “C (<30% modification)”.
As to `O=C(Nc1cccc(Nc2nc(Nc3ccc(O)cc3)ncc2F)c1)C(O)CO` (stereo not drawn) [Compound I-6, N-(3-((5-fluoro-2-((4-hydroxyphenyl)amino)pyrimidin-4-yl)amino)phenyl)-2,3-dihydroxypropanamide], the MS % modification result is listed as “C (<30% modification)”.
`COCCOc1ccc(Nc2ncc(F)c(Nc3cccc(NC(=O)C(O)CO)c3)n2)cc1` (stereo not drawn) [Compound I-4, N-(3-((5-fluoro-2-((4-(2-methoxyethoxyl)phenyl)amino)pyrimidin-4-yl)amino)phenyl)-2,3-dihydroxypropanamide]: the MS % modification result is “C (<30% modification)”.
As for `C=CC(=O)Nc1cccc(Nc2nc(Nc3ccc(OCCO)cc3)ncc2F)c1` [Compound I-1, N-(3-((5-fluoro-2-((4-(2-hydroxyethoxyl)phenyl)amino)pyrimidin-4-yl)amino)phenyl)acrylamide], the MS % modification entry was “B (31-69% modification)”.
In the case of `C=CC(=O)Nc1cccc(Nc2nc(Nc3ccc(O)cc3)ncc2F)c1` [Compound I-3, N-(3-((5-fluoro-2-((4-hydroxyphenyl)amino)pyrimidin-4-yl)amino)phenyl)acrylamide] it was “A (>70% modification)”.

Values taken from patent US9549927B2, “Heteroaryl compounds and uses thereof” (Celgene Avilomics Research, Inc., priority 2012, dated 2017).
